Experimental data taken from paper PMC6747274, “Multifunctional Peptides from Spanish Dry-Cured Pork Ham: Endothelial Responses and Molecular Modeling Studies” (International Journal of Molecular Sciences, 2019).
Where no end group is shown, it is not given here.

Experiments:
Assay type in all cases: cell-based, human
[1] = tested on: EA.hy926 cells; assay: Annexin V / propidium iodide apoptosis and necrosis by FACS; conditions: preincubation with 300 µM peptide, then 300 µM H2O2; three independent experiments, mean ± SD; NS vs H2O2 alone
Description: (§1) EA.hy926 were seeded in six-well plates at 0.25 × 10^6 cells/well in DMEM supplemented with 5% FBS. Cells were treated with 300 µM of each peptide for 16 h. Then, 100 ng/mL TNF-α or 300 µM H2O2 were added for an additional 6 h or 24 h, respectively.
ApoScreen Annexin V Apoptosis Kit-FITC (Southern Biotech, Birmingham, AL, USA) was used to detect the apoptosis rate. After the co-incubation of synthetic peptides and 300 µM H2O2, 0.4 × 10^6 cells were detached and washed in cold PBS, then resuspended in 100 µL Annexin V binding buffer and treated following the manufacturer’s protocol. Annexin V-fluorescein isothiocyanate (FITC) binding was assessed in FL1 channel simultaneously with propidium iodide (FL2 channel). This test discriminates among intact cells (FITC−/PI−), apoptotic cells (FITC+/PI−), and necrotic cells (FITC+/PI+). Assays were performed in triplicate (Table S1).

[2] = tested on: ICAM-1 protein, EA.hy926 cells; assay: Intracellular ICAM-1 protein by western blot; conditions: 300 µM peptide + 100 ng/mL TNF-α vs TNF-α stimulation; p < 0.01
Description: as §1
Supplementary Material and Methods
1.1. Human ACE Inhibitio n Assa y
Before transfection, the endothelial ACE expressio n level was very low and the p roduct of the enzymatic reaction undete ctable, and so a recombinant construct e ncodi ng the Myc-Tag fused to the ACE ge ne was used. T o overexpress the ACE enzyme, EA.hy926 cel ls were seeded in 24-well plates at 80,000 cells/well and transiently transfec ted with a human Ace ORF mammali an expression plasmid (Sinobiological, Beijing, China) using trans-it X2 reagent ( Myrus®, Madi son, […]
Wisconsin, USA). […] The effi ciency of […]
transfecti on was checked by immunofluorescence. Briefly, 48 h post-transfection, cells were fixed with 4% paraformaldehyd e in culture medi um for 15 min at room temperatur e, blocked with 1% bo vine seru m albumin (BSA) in phosph ate buffer for 30 min followed by 0.2% sapo nin for 30 min to permeabil ize the membr ane. […]
The mRNA level s of the target genes (ICAM-1, VCAM-1, IL-6, eNOS, SOD, catal ase, NADPH, BAX) were quantified by RT-PCR using Se nsiFAST SYBER Hi-ROX Kit (Bioline, Taunton, USA) with StepOnePlus Real-Time PCR Sy stem (Appl ied Bi osystems, Foster City, CA, USA) using speci fi c and vali dated pri mers (Si gma-Al drich Chemical Co., Saint Louis, MO, USA).
The tetr azolium assay (MTT) was used to estimate the cel l viability in the presence of synthetic pepti des (up to 600 µM) and 300 µM H2O2. […] The formazan crystals formed in the intact cel ls were dissol ved in 200 µL dimethyl sulfoxide (DMSO) for 30 min and the absorbance was measured in a micro plate reader at 570 nm and 620 nm of reference. Results wer e calculated as cel l viability (%) = average optic density (OD) of wells/ave rage OD of control wells. […]

[3] = tested on: ICAM-1 surface expression, EA.hy926 cells; assay: ICAM-1 surface expression by flow cytometry (MFI); conditions: for ICAM-1 surface density (in words): 300 µM peptide + TNF-α vs TNF-α activated cells, all p < 0.05; for ICAM-1 MFI: preincubation with 300 µM peptide, then 100 ng/mL TNF-α, six independent experiments, mean ± SD, p vs TNF-α: BP1 0.03, BP2 0.009, BP3 0.09, BP4 0.04, control 71.36 ± 8.31
Description: EA.hy926 cells, the hybrid human umbilical vein endothelial cell line, were obtained from the American Type Culture Collection (ATCC® CRL2922™, Rockville, MD, USA). Cells were cultured in high glucose Dulbecco’s Modified Eagle’s Medium (DMEM), containing 10% heat-inactivated fetal bovine serum (FBS, Biowest, Riverside, CA, USA) and 50 U/mL of penicillin and 50 µg/mL streptomycin (Sigma Aldrich Chemical Co., Saint Louis, MO, USA). Cells were grown in 5% CO2 in a humidified air incubator at 37 °C. Subculture was performed when 90% confluence was reached.
as §1
To measure adhesion molecule content in human endothelial cells by flow cytometry, the cell monolayer was detached and fixed before immunofluorescence labelling. The following antibodies were used per sample: 20 µL anti-ICAM-1/CD54-phycoerythrin (PE) (clone HA58, BD Biosciences, Franklin Lakes, NJ, USA) and 5 µL anti-VCAM-1/CD106-PerCP-Cy5.5 (clone 51–10C9; BD Biosciences, San Jose, CA, USA), according to the manufacturer’s protocol. Stained cells (10,000 events) were examined by flow cytometry (FACS Calibur, Becton Dickinson, Mountain View, CA, USA) in a simultaneous two-color analysis with FL2 (PE) and FL3 (PerCP-Cy5.5) channels. Markers were set according to the negative controls to quantify the percentage of positively stained cells. Mean Fluorescence Intensity (MFI) was calculated for each antigen (MFI of total stained cells-MFI of negative control cells).

| Substance | Apoptosis (AnV+/PI-), % cells [1] [%] | Necrosis (AnV+/PI+), % cells [1] [%] | ICAM-1 protein production (western blot) [2] | ICAM-1 surface density (in words) [3] | ICAM-1 MFI [3] |
| --- | --- | --- | --- | --- | --- |
| AAATP [BP4] | 12.16 ± 1.86 | 18.42 ± 6.34 | lower production of ICAM-1 protein | reduced ICAM-1 surface density | 926.01 ± 152.46 |
| KAAAATP [BP2] | 14.47 ± 2.42 | 19.58 ± 0.18 | lower production of ICAM-1 protein | reduced ICAM-1 surface density | 1064.42 ± 32.02 |
